Measured values published in article PMC10167348, “Structural mechanisms of TRPM7 activation and inhibition” (Nature Communications, 2023).
“And” between values parts separate entries of the source, which are not always exact repeats. Identical values can stand only once.

Tests used:
Experiment in all cases: Aequorin-based Ca2+ influx assay, activation by naltriben
Assay type in all cases: cell-based
TRPM7-N752K = molecular target: T1, TRPM7-N752K (Mus musculus, UniProt Q923J1, N752K)
T1 construct: expressed in transfected cells; host or cells: HEK 293T
T1 sequence (Q923J1 whole entry N752K): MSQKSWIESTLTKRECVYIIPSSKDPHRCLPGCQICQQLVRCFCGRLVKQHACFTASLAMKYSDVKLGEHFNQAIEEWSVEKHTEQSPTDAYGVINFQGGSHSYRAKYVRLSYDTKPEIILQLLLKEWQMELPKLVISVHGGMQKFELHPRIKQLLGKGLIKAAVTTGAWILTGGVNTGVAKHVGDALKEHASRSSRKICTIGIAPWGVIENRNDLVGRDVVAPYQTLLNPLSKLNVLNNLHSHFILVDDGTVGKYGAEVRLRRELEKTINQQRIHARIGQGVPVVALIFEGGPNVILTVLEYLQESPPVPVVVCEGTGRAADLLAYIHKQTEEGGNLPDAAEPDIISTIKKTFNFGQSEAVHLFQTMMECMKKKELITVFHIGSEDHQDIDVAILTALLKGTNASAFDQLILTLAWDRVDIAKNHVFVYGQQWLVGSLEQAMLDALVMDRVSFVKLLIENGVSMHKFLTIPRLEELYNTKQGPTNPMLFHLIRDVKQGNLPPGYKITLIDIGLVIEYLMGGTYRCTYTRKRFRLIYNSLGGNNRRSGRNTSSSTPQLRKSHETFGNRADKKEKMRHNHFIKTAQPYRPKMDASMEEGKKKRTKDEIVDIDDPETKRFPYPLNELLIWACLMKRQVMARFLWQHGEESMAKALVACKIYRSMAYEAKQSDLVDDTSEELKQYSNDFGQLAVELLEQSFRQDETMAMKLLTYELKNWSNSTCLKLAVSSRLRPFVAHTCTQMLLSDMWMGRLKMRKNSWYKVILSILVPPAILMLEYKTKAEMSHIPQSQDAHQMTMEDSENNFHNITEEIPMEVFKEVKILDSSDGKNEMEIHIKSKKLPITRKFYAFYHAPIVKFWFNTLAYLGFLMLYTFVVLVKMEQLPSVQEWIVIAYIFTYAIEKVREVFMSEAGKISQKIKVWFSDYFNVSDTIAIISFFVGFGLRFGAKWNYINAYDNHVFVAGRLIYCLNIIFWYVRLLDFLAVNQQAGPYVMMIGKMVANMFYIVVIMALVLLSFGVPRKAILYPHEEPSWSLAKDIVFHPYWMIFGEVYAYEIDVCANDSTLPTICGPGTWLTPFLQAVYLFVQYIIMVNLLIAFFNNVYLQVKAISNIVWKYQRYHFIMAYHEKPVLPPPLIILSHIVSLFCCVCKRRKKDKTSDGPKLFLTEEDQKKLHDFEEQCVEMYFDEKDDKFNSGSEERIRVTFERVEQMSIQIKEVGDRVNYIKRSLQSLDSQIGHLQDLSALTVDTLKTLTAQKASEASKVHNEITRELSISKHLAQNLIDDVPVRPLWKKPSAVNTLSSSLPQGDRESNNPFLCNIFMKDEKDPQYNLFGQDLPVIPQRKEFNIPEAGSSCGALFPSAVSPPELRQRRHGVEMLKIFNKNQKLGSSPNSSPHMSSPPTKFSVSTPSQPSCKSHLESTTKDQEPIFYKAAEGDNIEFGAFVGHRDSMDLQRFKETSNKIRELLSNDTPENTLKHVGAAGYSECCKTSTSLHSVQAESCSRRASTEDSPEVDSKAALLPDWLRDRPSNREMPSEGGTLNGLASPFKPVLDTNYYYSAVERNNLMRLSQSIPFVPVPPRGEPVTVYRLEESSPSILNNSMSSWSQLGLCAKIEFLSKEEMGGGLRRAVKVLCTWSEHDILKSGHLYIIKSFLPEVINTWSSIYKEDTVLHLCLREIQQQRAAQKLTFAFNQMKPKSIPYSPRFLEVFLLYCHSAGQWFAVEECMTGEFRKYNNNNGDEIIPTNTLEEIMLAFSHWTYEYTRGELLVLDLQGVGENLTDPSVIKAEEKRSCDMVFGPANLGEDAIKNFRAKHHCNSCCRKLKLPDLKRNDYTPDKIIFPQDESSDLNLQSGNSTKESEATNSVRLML
Experimental: (§1) Measurements of [Ca^2+]i were performed as reported previously with several modifications[2],[52],[54]. HEK 293T cells (mycoplasma test negative, ATCC #CRL3216) were maintained at 37 °C and 5% CO2 in DMEM supplemented with 10% fetal calf serum, 100 µg/ml streptomycin and 100 U/ml penicillin (all from Thermo Fisher Scientific). Cells cultured in six-well plates (~60% confluence) were transfected with 2 µg/dish Trpm7 plasmid DNA and 0.1 µg/dish pG5A plasmid DNA encoding eGFP fused to Aequorea victoria aequorin, using Lipofectamine 2000 (Thermo Fisher Scientific). Twenty-four hours after transfection, the cells were washed with Mg^2+-free HEPES-buffered saline (Mg^2+-free HBS) containing 140 mM NaCl, 6 mM KCl, 0.5 mM CaCl2, 10 mM HEPES (pH 7.4) and 5 mM glucose, and mechanically resuspended in the Mg^2+-free HBS. For reconstitution of aequorin, cell suspensions were incubated with 5 µM coelenterazine (Biaffin GmbH) in the Mg^2+-free HBS for 30 min at room temperature. Cells were washed twice by centrifugation at 600 rpm for 5 min (Heraeus Pico 17 microcentrifuge, Thermo Fisher Scientific), resuspended in the Mg^2+-free HBS and aliquoted into 96-well plates (1 × 10^5 cells per well). Luminescence was detected at room temperature using a FLUOstar OPTIMA microplate reader (BMG LABTECH GmbH). To monitor the NS8593- and VER155008-induced inhibition of TRPM7-mediated Ca^2+ influx, the extracellular concentration of Ca^2+ was increased to 5 mM by injecting the CaCl2-containing Mg^2+-free HBS in the absence or presence of the inhibitors. […] To study activation by naltriben, TRPM7-transfected cells were exposed to Mg^2+-free HBS containing different concentrations of the agonist. The experiments were terminated by lysing cells with 0.1% (v/v) Triton X-100 in the Mg^2+-free HBS to record the total bioluminescence. The bioluminescence rates (counts/s) were analyzed at 1-s intervals and calibrated as [Ca^2+]i values using the following equation:1 p[Ca^2+]i=0.332588(−log(k))+5.5593 where k represents the rate of aequorin consumption, i.e., counts/s divided by the total number of counts.
(§2) To determine the IC50 values for NS8593 and VER155008 (EC50 for naltriben), the data were fitted with the following logistic equation:2 Ec=Emin+Emax+Emin/1+c^h/IC50^h where E(c) is the functional effect at the concentration c of the compound, Emin is the minimal effect, Emax is the maximal effect, IC50 (EC50) is the concentration of the compound that produces the half-maximal effect, and h is the Hill coefficient. Fitting of dose-response curves was performed using GraphPad Prism 8.4.0. Data are presented as the mean ± SEM.

TRPM7-M741A = molecular target: T2, TRPM7-M741A (Mus musculus, UniProt Q923J1, M741A); conditions: for TRPM7 activation, fold: replicate values
T2 construct: expressed in transfected cells; host or cells: HEK 293T
T2 sequence (Q923J1 whole entry M741A): as the sequence (Q923J1 whole entry N752K) above, with M741A, K752N counted along it
Experimental: as §1, §2

TRPM7-D670A = molecular target: T3, TRPM7-D670A (Mus musculus, UniProt Q923J1, D670A); conditions: for TRPM7 activation, fold: replicate values
T3 construct: expressed in transfected cells; host or cells: HEK 293T
T3 sequence (Q923J1 whole entry D670A): as the sequence (Q923J1 whole entry N752K) above, with D670A, K752N counted along it
Experimental: as §1, §2

TRPM7-S744A = molecular target: T4, TRPM7-S744A (Mus musculus, UniProt Q923J1, S744A)
T4 construct: expressed in transfected cells; host or cells: HEK 293T
T4 sequence (Q923J1 whole entry S744A): as the sequence (Q923J1 whole entry N752K) above, with S744A, K752N counted along it
Experimental: as §1, §2

TRPM7 WT = molecular target: T5, TRPM7 WT (Mus musculus, UniProt Q923J1); conditions: for TRPM7 activation, fold: replicate values
T5 construct: expressed in transfected cells; host or cells: HEK 293T
T5 sequence (Q923J1 whole entry): as the sequence (Q923J1 whole entry N752K) above, with K752N counted along it
Experimental: as §1, §2

TRPM7-L671A = molecular target: T6, TRPM7-L671A (Mus musculus, UniProt Q923J1, L671A)
T6 construct: expressed in transfected cells; host or cells: HEK 293T
T6 sequence (Q923J1 whole entry L671A): as the sequence (Q923J1 whole entry N752K) above, with L671A, K752N counted along it
Experimental: as §1, §2

TRPM7-L671A/N752K = molecular target: T7, TRPM7-L671A/N752K (Mus musculus, UniProt Q923J1, L671A/N752K)
T7 construct: expressed in transfected cells; host or cells: HEK 293T
T7 sequence (Q923J1 whole entry L671A/N752K): as the sequence (Q923J1 whole entry N752K) above, with L671A counted along it
Experimental: as §1, §2

**Q.** For `Oc1ccc2c3c1O[C@H]1c4oc5ccccc5c4C[C@@]4(O)[C@@H](C2)N(CC2CC2)CC[C@]314` [Naltriben, naltriben], which EC50 (TRPM7-N752K) is on record?
**A.** 191 ± 18 µM

**Q.** What about the Hill coefficient (TRPM7-N752K; N752K, agonist, mean ± SEM) of the same molecule?
**A.** 1.91 ± 0.24

**Q.** And the EC50 (TRPM7-M741A)?
**A.** 85 ± 6.51 µM

**Q.** What about the “TRPM7 activation, fold” value (TRPM7-M741A; M741A, [Naltriben] 10 µM) of the same molecule?
**A.** 0.99 fold and 1.09 fold and 1.07 fold (2×)

**Q.** What about the “TRPM7 activation, fold” value (TRPM7-M741A; M741A, [Naltriben] 20 µM) of the same molecule?
**A.** 1.10 fold and 1.30 fold and 1.28 fold and 1.20 fold

**Q.** What about the “TRPM7 activation, fold” value (TRPM7-M741A; M741A, [Naltriben] 30 µM) of the same molecule?
**A.** 1.39 fold and 1.61 fold and 1.52 fold and 1.40 fold

**Q.** And the “TRPM7 activation, fold” value (TRPM7-M741A; M741A, [Naltriben] 40 µM)?
**A.** 1.53 fold and 1.69 fold and 1.74 fold and 1.64 fold

**Q.** And the “TRPM7 activation, fold” value (TRPM7-M741A; M741A, [Naltriben] 50 µM)?
**A.** 1.77 fold and 2.03 fold and 1.91 fold and 1.96 fold

**Q.** What about the “TRPM7 activation, fold” value (TRPM7-M741A; M741A, [Naltriben] 100 µM) of the same molecule?
**A.** 2.28 fold and 2.65 fold and 2.56 fold and 2.47 fold

**Q.** What about the “TRPM7 activation, fold” value (TRPM7-M741A; M741A, [Naltriben] 200 µM) of the same molecule?
**A.** 2.83 fold and 3.14 fold and 3.02 fold and 2.90 fold

**Q.** What about the “TRPM7 activation, fold” value (TRPM7-M741A; M741A, [Naltriben] 300 µM) of the same molecule?
**A.** 3.11 fold and 3.30 fold and 3.34 fold and 3.20 fold

**Q.** What about the “TRPM7 activation, fold” value (TRPM7-M741A; M741A, [Naltriben] 400 µM) of the same molecule?
**A.** 3.18 fold and 3.51 fold and 3.48 fold and 3.46 fold

**Q.** What about the “TRPM7 activation, fold” value (TRPM7-M741A; M741A, [Naltriben] 500 µM) of the same molecule?
**A.** 3.39 fold and 3.58 fold (2×) and 3.45 fold

**Q.** What about the Hill coefficient (TRPM7-M741A; M741A, agonist, mean ± SEM) of the same molecule?
**A.** 1.37 ± 0.11

**Q.** What about the EC50 (TRPM7-D670A) of the same molecule?
**A.** 117 ± 32.4 µM

**Q.** What about the “TRPM7 activation, fold” value (TRPM7-D670A; D670A, [Naltriben] 10 µM) of the same molecule?
**A.** 1.01 fold and 1.02 fold and 1.12 fold

**Q.** What about the “TRPM7 activation, fold” value (TRPM7-D670A; D670A, [Naltriben] 20 µM) of the same molecule?
**A.** 1.24 fold and 1.22 fold and 1.21 fold

**Q.** What about the “TRPM7 activation, fold” value (TRPM7-D670A; D670A, [Naltriben] 30 µM) of the same molecule?
**A.** 1.55 fold and 1.37 fold (2×)

**Q.** What about the “TRPM7 activation, fold” value (TRPM7-D670A; D670A, [Naltriben] 40 µM) of the same molecule?
**A.** 1.67 fold and 1.48 fold and 1.56 fold

**Q.** What about the “TRPM7 activation, fold” value (TRPM7-D670A; D670A, [Naltriben] 50 µM) of the same molecule?
**A.** 2.45 fold and 1.56 fold and 1.72 fold

**Q.** And the “TRPM7 activation, fold” value (TRPM7-D670A; D670A, [Naltriben] 100 µM)?
**A.** 2.45 fold and 2.03 fold and 2.05 fold

**Q.** What about the “TRPM7 activation, fold” value (TRPM7-D670A; D670A, [Naltriben] 200 µM) of the same molecule?
**A.** 3.19 fold and 2.69 fold and 2.68 fold

**Q.** What about the “TRPM7 activation, fold” value (TRPM7-D670A; D670A, [Naltriben] 300 µM) of the same molecule?
**A.** 3.34 fold and 3.00 fold and 2.98 fold

**Q.** And the “TRPM7 activation, fold” value (TRPM7-D670A; D670A, [Naltriben] 400 µM)?
**A.** 3.55 fold and 3.27 fold and 3.16 fold

**Q.** And the “TRPM7 activation, fold” value (TRPM7-D670A; D670A, [Naltriben] 500 µM)?
**A.** 3.71 fold and 3.18 fold and 3.31 fold

**Q.** What about the Hill coefficient (TRPM7-D670A; D670A, agonist, mean ± SEM) of the same molecule?
**A.** 1.17 ± 0.24

**Q.** And the EC50 (TRPM7-S744A)?
**A.** 71.8 ± 9.7 µM

**Q.** And the Hill coefficient (TRPM7-S744A; S744A, agonist, mean ± SEM)?
**A.** 1.48 ± 0.25

**Q.** And the EC50 (TRPM7 WT)?
**A.** 65.8 ± 12.4 µM

**Q.** And the “TRPM7 activation, fold” value (TRPM7 WT; WT, [Naltriben] 100 µM)?
**A.** 3.40 fold and 2.89 fold and 2.30 fold and 2.40 fold and 3.03 fold and 3.14 fold

**Q.** What about the “TRPM7 activation, fold” value (TRPM7 WT; WT, [Naltriben] 200 µM) of the same molecule?
**A.** 4.23 fold and 3.70 fold and 3.66 fold and 2.99 fold and 3.63 fold and 3.89 fold

**Q.** What about the “TRPM7 activation, fold” value (TRPM7 WT; WT, [Naltriben] 300 µM) of the same molecule?
**A.** 4.35 fold and 3.85 fold and 3.80 fold and 3.47 fold and 3.56 fold and 4.23 fold

**Q.** What about the “TRPM7 activation, fold” value (TRPM7 WT; WT, [Naltriben] 400 µM) of the same molecule?
**A.** 4.51 fold and 3.90 fold and 3.86 fold and 3.52 fold and 3.70 fold and 4.17 fold

**Q.** And the “TRPM7 activation, fold” value (TRPM7 WT; WT, [Naltriben] 500 µM)?
**A.** 4.41 fold and 4.17 fold and 4.05 fold and 3.42 fold and 4.20 fold and 4.10 fold

**Q.** And the Hill coefficient (TRPM7 WT; WT, agonist, mean ± SEM)?
**A.** 1.23 ± 0.25

**Q.** What about the EC50 (TRPM7-L671A) of the same molecule?
**A.** 145 ± 22.9 µM

**Q.** And the Hill coefficient (TRPM7-L671A; L671A, agonist, mean ± SEM)?
**A.** 1.68 ± 0.32

**Q.** What about the EC50 (TRPM7-L671A/N752K) of the same molecule?
**A.** 230 ± 48.9 µM

**Q.** And the Hill coefficient (TRPM7-L671A/N752K; N752K/ L671A, agonist, mean ± SEM)?
**A.** 2.82 ± 1.38
